According to patent publication US12624031B2, “Inhibitors of ubiquitin specific peptidase 22 (USP22) and uses thereof for treating diseases and disorders” (Northwestern University, priority 2022, dated 2026):

Legend:
[1] = system: FoxP3 and PD-L1 expression; assay: biological screening of FoxP3 and PD-L1 expression; format: cell-based; conditions: inhibition of FoxP3 and PD-L1 expression
Procedure: Biological screening confirmed that USP22i-S02 inhibited the expression of FoxP3 and PD-L1 expression in a USP22-dependent manner. The IC50 is about 6-7 uM. […] In particular, modifications at the R position at A-Ring, or R1 and R2 at E-Ring are likely to improve its biological activity. Therefore, we used the SYBYL drug design software and generated a chemical library of 40400 derivatives (named as USP22-S02X) by modifying the A or/and E ring with 200 functional groups at the R or R1 or R2 or two of the three positions.

LLC1 tumors in WT mice = assay: LLC1 tumor model in WT mice; format: in vivo
Procedure: FIG. 5: Usp22 inhibitor administration enhances antitumor immunity. A, Structure of compound CS30 (Usp22i-S02). B, FOXP3 MFI in WT and 22KO of Treg cells after treatment with 20 μg/kg of Usp22i-S02 in vivo (n=3). C, Representative flow cytometry plot of FOXP3+CD25+MFI of CD4+ peripheral cells of mice treated with 20 μg/kg of Usp22i-S 02 relative to control (n=5). D, Graphical representation of Foxp3 MFI upon Usp22i-S02 administration (n=5). E, Tumor growth curve of LLC1 cells subcutaneously injected in the flank of WT mice with or without the addition of 20 mg/kg/time of the Usp22 inhibitor starting at day 15, in 100 μL of oil (n=4). F-G, Representative flow cytometry plot and graphical representation of % infiltration of CD4+ and CD8+ T cells within the tumor (n=4). H, Representative histogram plot and graphical representation of intratumoral Treg (itTreg) Foxp3 MFI (n=4). I, MFI of itTreg suppressive markers (n=3-4). J, Percent Foxp3+IFNg+itTreg cells in control and Usp22-S02 treated mice (n=3-4). B, D-E, G, H-I Two-way ANOVA with multiple comparisons between rows was performed to determine statistical significance. J, Unpaired two tailed T test was performed to determine significance. All data are presented as mean±stdev. NS, not significant. *P<0.05, **P<0.01, ***P<0.001, ****P<0.0001.
FIG. 7: Usp22i-S02 has little effect on naïve mice, yet enhances anti-tumor immunity in LLC1-challenged mice. A, Body weight of Usp22i-S02 treated mice verses DMSO treated controls over the course of treatment (n=4). A-F. Injections were twice a day for 3 consecutive days at 10 μg/kg (n=4). B, Percent of cell populations in naïve mice treated with Usp22i-S02 relative to DMSO control (n=3-4). C, Percent of KI-67+ cells in various compartments in naïve mice treated with Usp22i-S02 relative to DMSO control (n=3-4). D, Percent CD44^hiCD62L^lo in T cell populations gated on CD45+ cells in naïve mice treated with Usp22i-S02 relative to DMSO control (n=3). E, Percent Annexin+PI+ T cells gates on CD45+ cells in naïve mice treated with Usp22i-S02 relative to DMSO control (n=4). F-H, Organ toxicity panel (VetScan VS2 Comprehensive Diagnostic Rotor lot 1061AA2) of naïve mice treated with Usp22i-S02 relative to DMSO control (n=2-3). I, Growth curve of subcutaneously injected LLC1 in WT mice treated with Usp22i-S02 at 10 μg/kg (n=5-10). I-Q, Injections were twice a day for 5 consecutive days at 10 μg/kg. J, Weights of resected tumors at day 16 from I (n=10). K-L, Representative flow plot and graphical representation of infiltrating T cells gated on CD45+ cells (n=5). M-P, Characterization of intratumoral CD8+ T cells frome mice treated with Usp22i-S02 (n=3-5). Q, Percent of intratumoral Treg cells from mice treated with Usp22i-S02 verses DMSO control, gated on CD4+Foxp3+ from mice (n=5). A-E, I and L, Two-way ANOVA with Sidaks's multiple comparisons between rows relative to control was performed to determine statistical significance. F-H, J, and M-Q, Two-tailed unpaired t-test was performed to determine statistical significance. All data are presented as mean±stdev. NS, not significant. *P<0.05, **P<0.01, ***P<0.001, ****P<0.0001.
To determine the functionality of Usp22i-S02 as a potential therapeutic, we tested the inhibitor on established tumors. […] Further analysis of tumor infiltrating lymphocytes was done on mice treated immediately following tumor implantation (FIG. 7I).
LLC1 cells were transplanted into 6-to-8-week-old C57BL/6 male mice. Subcutaneous injections were performed in the right flank of mice in a final volume of 100 μL using […] per injection. The USP22i-S02 was injected intraperitoneally (i.p) at a concentration of 20 mg/kg/time, in 100 μL of oil, twice a day for 5 days beginning on the day of the LLC1 cells injection. Control animals received 100 μL of oil alone. Subcutaneous tumor diameters were measured daily with calipers until any tumor in the mouse cohort reached 2.5 cm in its largest diameter.

LLC1 cells = assay: LLC1 cell counts, viability and growth in vitro; format: cell-based; conditions: 24 hours various concentrations; 10 ug/ml for 7 days
Procedure: (§1) FIG. 8: Usp22i-S02 inhibits tumor growth in vitro and in vivo. A, In vitro counts of LLC1 after treatment with Usp22i-S02 under various concentrations for 24 hours (n=2). B, In vitro viability of LLC1 after treatment with Usp22i-S02 under various concentrations for 24 hours (n=2). C, In vitro relative growth of LLC1 cells treated with 10 ug/ml of Usp22i-S02 relative to DMSO treated control for 7 days via OD600 (n=4). D, Growth curve of 1 million subcutaneously injected LLC1 cells into RAG−/− mice treated for 3 days Usp22i-S02 relative to DMSO control injections at day 15 of tumor growth (n=4). C-D, Two-way ANOVA with Sidaks's multiple comparisons between rows relative to control was performed to determine statistical significance. All data are presented as mean±stdev. NS, not significant. *P<0.05, **P<0.01, ***P<0.001, ****P<0.0001.
(§2) As Usp22 is also an important oncogene, we were interested in the potential dual-therapeutic function of Usp22i-S02.

[2] = system: LLC1 tumors in RAG−/− mice; assay: LLC1 tumor growth in RAG−/− mice; format: in vivo; conditions: treated for 3 days at day 15 of tumor growth
Procedure: as §1, §2

N#Cc1c2c(c(Nc3ccccc3)n3c1nc1ccccc13)CCCC2 [USP22i-S02, 11-anilino-7,8,9,10-tetrahydrobenzimidazo[1,2-b]isoquinoline-6-carbonitrile]
IC50 [1]: 6 to 7 µM
tumor growth of established LLC1 tumors (LLC1 tumors in WT mice; WT mice, 20 mg/kg/time starting at day 15): striking tumor rejection
itTreg GITR and PD-1 levels (LLC1 tumors in WT mice; established LLC1 tumors): lower levels of GITR and PD-1
itTreg IFN-γ levels (LLC1 tumors in WT mice; established LLC1 tumors): significantly higher levels of IFN-γ
Teff cell tumor infiltration (LLC1 tumors in WT mice; established LLC1 tumors, WT mice): significant increase in Teff cell tumor infiltration
intratumoral Foxp3+ Treg percentage (LLC1 tumors in WT mice; established LLC1 tumors, not splenic): significantly decreased
intratumoral CD8+ T cell phenotype (LLC1 tumors in WT mice; treated immediately following tumor implantation): less exhausted phenotype
intratumoral Foxp3+ Treg percentage (LLC1 tumors in WT mice; treated immediately following tumor implantation (FIG. 7Q)): significantly decreased
tumor burden (LLC1 tumors in WT mice; treated immediately following tumor implantation, twice a day for 5 days at 10 μg/kg): decreased tumor burden
LLC1 tumor cell counts, viability and growth in vitro (LLC1 cells): decreased tumor cell counts, viability, and growth
tumor growth in Rag−/− mice with established tumors [2]: small but statistically significant decrease in tumor growth
